PubChem BioAssay AID1745844 (Carcinogenic Potency Database (CPDB), 2022)
Where “and” joins values, the source holds several entries; their conditions need not be identical. Identical values can stand only once. Calls of active or inactive are those of the source. No rule for the calls is given here.

System: rodent lifetime carcinogenesis bioassay, tumor incidence TD50
Assay: carcinogenic potency in animals, long-term in vivo studies, CPDB compilation (AID 1745844)

With ClC=C(Cl)Cl the carcinogen call (hamster, strain Syrian Golden, females, inhaled, site: any site (literature study), lesion: benign tumor, dosed 78 weeks, study length 130 weeks) was “negative (inactive)”, the TD50 (hamster, strain Syrian Golden, females, inhaled, site: any site (literature study), lesion: malignant tumor, dosed 78 weeks, study length 130 weeks) was 9220 mg/kg/day (inactive) and the carcinogen call (hamster, strain Syrian Golden, females, inhaled, site: liver, lesion: several types, types named in the paper, dosed 78 weeks, study length 130 weeks) was “negative (inactive)”. For the same compound, the TD50 (hamster, strain Syrian Golden, males, inhaled, site: any site (literature study), lesion: benign tumor, dosed 78 weeks, study length 130 weeks) was 5640 mg/kg/day (inactive), the carcinogen call (hamster, strain Syrian Golden, males, inhaled, site: any site (literature study), lesion: malignant tumor, dosed 78 weeks, study length 130 weeks) was “negative (inactive)” and the carcinogen call (hamster, strain Syrian Golden, males, inhaled, site: liver, lesion: several types, types named in the paper, dosed 78 weeks, study length 130 weeks) was “negative (inactive)”. The TD50 (mouse, strain B6C3F1, females, by gavage, site: any site (literature study), lesion: several types, types named in the paper, dosed 78 weeks, study length 90 weeks) was 1850 mg/kg/day, the TD50 (mouse, strain B6C3F1, females, by gavage, site: any site (literature study), lesion: several types, types named in the paper, dosed 103 weeks, study length 105 weeks) was 359 mg/kg/day and the TD50 (mouse, strain B6C3F1, females, by gavage, site: liver + multiple organs + spleen, lesion: malignant lymphoma, histiocytic type + malignant lymphoma, mixed type + malignant lymphoma, lymphocytic type + malignant lymph, dosed 103 weeks, study length 105 weeks) was 1350 mg/kg/day and 1470 mg/kg/day. For the same compound, the TD50 (mouse, strain B6C3F1, females, by gavage, site: liver, lesion: hepatocellular adenoma + hepatocellular carcinoma + neoplastic nodule, dosed 78 weeks, study length 90 weeks) was 1930 mg/kg/day, the TD50 (mouse, strain B6C3F1, females, by gavage, site: liver, lesion: hepatocellular adenoma + hepatocellular carcinoma + neoplastic nodule, dosed 103 weeks, study length 105 weeks) was 411 mg/kg/day and the TD50 (mouse, strain B6C3F1, females, by gavage, site: liver, lesion: hepatocellular adenoma + hepatocellular carcinoma, dosed 103 weeks, study length 105 weeks) was 411 mg/kg/day. The TD50 (mouse, strain B6C3F1, females, by gavage, site: liver, lesion: hepatocellular adenoma, dosed 103 weeks, study length 105 weeks) was 579 mg/kg/day, the TD50 (mouse, strain B6C3F1, females, by gavage, site: liver, lesion: hepatocellular carcinoma, dosed 78 weeks, study length 90 weeks) was 1930 mg/kg/day and the TD50 (mouse, strain B6C3F1, females, by gavage, site: liver, lesion: hepatocellular carcinoma, dosed 103 weeks, study length 105 weeks) was 673 mg/kg/day. It also gave a TD50 (mouse, strain B6C3F1, females, by gavage, site: lung, lesion: alveolar/bronchiolar adenoma + alveolar/bronchiolar carcinoma, dosed 78 weeks, study length 90 weeks) of 4350 mg/kg/day, a TD50 (mouse, strain B6C3F1, females, by gavage, site: lung, lesion: alveolar/bronchiolar adenoma + alveolar/bronchiolar carcinoma, dosed 103 weeks, study length 105 weeks) of 3850 mg/kg/day and a TD50 (mouse, strain B6C3F1, females, by gavage, site: lung, lesion: alveolar/bronchiolar adenoma, dosed 103 weeks, study length 105 weeks) of 2780 mg/kg/day. For the same compound, the TD50 (mouse, strain B6C3F1, females, by gavage, site: multiple organs, lesion: malignant lymphoma, lymphocytic type, dosed 103 weeks, study length 105 weeks) was 4880 mg/kg/day, the TD50 (mouse, strain B6C3F1, females, inhaled, site: any site (literature study), lesion: malignant tumor, dosed 78 weeks, study length 154 weeks) was 2080 mg/kg/day and the TD50 (mouse, strain B6C3F1, females, inhaled, site: any site (literature study), lesion: several types, types named in the paper, dosed 78 weeks, study length 154 weeks) was 1320 mg/kg/day. The TD50 (mouse, strain B6C3F1, females, inhaled, site: liver, lesion: hepatoma, dosed 78 weeks, study length 154 weeks) was 13600 mg/kg/day, the TD50 (mouse, strain B6C3F1, females, inhaled, site: lung, lesion: one or several types, types not named, dosed 78 weeks, study length 154 weeks) was 6320 mg/kg/day and the TD50 (mouse, strain B6C3F1, females, inhaled, site: thyroid gland, lesion: adenoma, dosed 78 weeks, study length 154 weeks) was 2.23e+06 mg/kg/day. It also gave a TD50 (mouse, strain B6C3F1, females, inhaled, site: thyroid gland, lesion: carcinoma, dosed 78 weeks, study length 154 weeks) of 131000 mg/kg/day, a TD50 (mouse, strain B6C3F1, males, by gavage, site: Harderian gland, lesion: adenoma, NOS + acinar-cell adenoma + papillary adenoma, dosed 103 weeks, study length 105 weeks) of 3830 mg/kg/day and a TD50 (mouse, strain B6C3F1, males, by gavage, site: any site (literature study), lesion: several types, types named in the paper, dosed 78 weeks, study length 90 weeks) of 553 mg/kg/day. For the same compound, the TD50 (mouse, strain B6C3F1, males, by gavage, site: any site (literature study), lesion: several types, types named in the paper, dosed 103 weeks, study length 105 weeks) was 332 mg/kg/day, the TD50 (mouse, strain B6C3F1, males, by gavage, site: liver, lesion: hepatocellular adenoma + hepatocellular carcinoma + neoplastic nodule, dosed 78 weeks, study length 90 weeks) was 421 mg/kg/day and the TD50 (mouse, strain B6C3F1, males, by gavage, site: liver, lesion: hepatocellular adenoma + hepatocellular carcinoma + neoplastic nodule, dosed 103 weeks, study length 105 weeks) was 239 mg/kg/day. The TD50 (mouse, strain B6C3F1, males, by gavage, site: liver, lesion: hepatocellular adenoma + hepatocellular carcinoma, dosed 103 weeks, study length 105 weeks) was 239 mg/kg/day, the TD50 (mouse, strain B6C3F1, males, by gavage, site: liver, lesion: hepatocellular adenoma, dosed 103 weeks, study length 105 weeks) was 855 mg/kg/day and the TD50 (mouse, strain B6C3F1, males, by gavage, site: liver, lesion: hepatocellular carcinoma, dosed 78 weeks, study length 90 weeks) was 421 mg/kg/day. It also gave a TD50 (mouse, strain B6C3F1, males, by gavage, site: liver, lesion: hepatocellular carcinoma, dosed 103 weeks, study length 105 weeks) of 294 mg/kg/day, a TD50 (mouse, strain B6C3F1, males, by gavage, site: lung, lesion: alveolar/bronchiolar adenoma + alveolar/bronchiolar carcinoma, dosed 78 weeks, study length 90 weeks) of 7160 mg/kg/day and a TD50 (mouse, strain B6C3F1, males, by gavage, site: lung, lesion: alveolar/bronchiolar adenoma + alveolar/bronchiolar carcinoma, dosed 103 weeks, study length 105 weeks) of 4250 mg/kg/day. It also gave a TD50 (mouse, strain B6C3F1, males, in drinking water, site: liver, lesion: hepatocellular adenoma, dosed 61 weeks, study length 61 weeks) of 502 mg/kg/day, a TD50 (mouse, strain B6C3F1, males, in drinking water, site: liver, lesion: hepatocellular carcinoma, dosed 61 weeks, study length 61 weeks) of 16 mg/kg/day and a TD50 (mouse, strain B6C3F1, males, inhaled, site: liver, lesion: angiosarcoma, dosed 78 weeks, study length 135 weeks) of 77000 mg/kg/day. The TD50 (mouse, strain B6C3F1, males, inhaled, site: liver, lesion: hepatoma, dosed 78 weeks, study length 135 weeks) was 4530 mg/kg/day, the TD50 (mouse, strain B6C3F1, males, inhaled, site: liver, lesion: hepatoma, dosed 78 weeks, study length 154 weeks) was 5030 mg/kg/day and the TD50 (mouse, strain Ha/ICR, females, by gavage, site: forestomach, lesion: one or several types, types not named, dosed 88 weeks, study length 88 weeks) was 41.3 mg/kg/day (inactive). The TD50 (mouse, strain Ha/ICR, males, by gavage, site: forestomach, lesion: one or several types, types not named, dosed 88 weeks, study length 88 weeks) was 16.9 mg/kg/day (inactive), the TD50 (mouse, strain Han:NMRI, females, inhaled, site: all sites, lesion: malignant lymphoma, dosed 78 weeks, study length 130 weeks) was 846 mg/kg/day and the carcinogen call (mouse, strain Han:NMRI, females, inhaled, site: any site (literature study), lesion: benign tumor, dosed 78 weeks, study length 130 weeks) was “negative (inactive)”. For the same compound, the TD50 (mouse, strain Han:NMRI, females, inhaled, site: any site (literature study), lesion: malignant tumor, dosed 78 weeks, study length 130 weeks) was 573 mg/kg/day (inactive), the carcinogen call (mouse, strain Han:NMRI, females, inhaled, site: liver, lesion: several types, types named in the paper, dosed 78 weeks, study length 130 weeks) was “negative (inactive)” and the carcinogen call (mouse, strain Han:NMRI, females, inhaled, site: lung, lesion: alveolar/bronchiolar adenoma, dosed 78 weeks, study length 130 weeks) was “negative (inactive)”. The carcinogen call (mouse, strain Han:NMRI, females, inhaled, site: lung, lesion: alveolar/bronchiolar carcinoma, dosed 78 weeks, study length 130 weeks) was “negative (inactive)”, the carcinogen call (mouse, strain Han:NMRI, males, inhaled, site: all sites, lesion: malignant lymphoma, dosed 78 weeks, study length 130 weeks) was “negative (inactive)” and the carcinogen call (mouse, strain Han:NMRI, males, inhaled, site: any site (literature study), lesion: benign tumor, dosed 78 weeks, study length 130 weeks) was “negative (inactive)”. The carcinogen call (mouse, strain Han:NMRI, males, inhaled, site: any site (literature study), lesion: malignant tumor, dosed 78 weeks, study length 130 weeks) was “negative (inactive)”, the carcinogen call (mouse, strain Han:NMRI, males, inhaled, site: liver, lesion: hepatocellular adenoma, dosed 78 weeks, study length 130 weeks) was “negative (inactive)” and the carcinogen call (mouse, strain Han:NMRI, males, inhaled, site: liver, lesion: hepatocellular carcinoma, dosed 78 weeks, study length 130 weeks) was “negative (inactive)”. For the same compound, the carcinogen call (mouse, strain Han:NMRI, males, inhaled, site: liver, lesion: hepatoma, benign, dosed 78 weeks, study length 130 weeks) was “negative (inactive)”, the carcinogen call (mouse, strain Han:NMRI, males, inhaled, site: lung, lesion: alveolar/bronchiolar adenoma, dosed 78 weeks, study length 130 weeks) was “negative (inactive)” and the carcinogen call (mouse, strain Han:NMRI, males, inhaled, site: lung, lesion: malignant tumor, dosed 78 weeks, study length 130 weeks) was “negative (inactive)”. The TD50 (mouse, strain ICR, females, inhaled, site: any site (literature study), lesion: several types, types named in the paper, dosed 104 weeks, study length 107 weeks) was 1900 mg/kg/day, the TD50 (mouse, strain ICR, females, inhaled, site: liver, lesion: adenoma, dosed 104 weeks, study length 107 weeks) was 42300 mg/kg/day and the TD50 (mouse, strain ICR, females, inhaled, site: lung, lesion: adenocarcinoma, dosed 104 weeks, study length 107 weeks) was 3380 mg/kg/day. For the same compound, the TD50 (mouse, strain ICR, females, inhaled, site: lung, lesion: several types, types named in the paper, dosed 104 weeks, study length 107 weeks) was 3370 mg/kg/day, the TD50 (mouse, strain Swiss, females, inhaled, site: any site (literature study), lesion: malignant tumor, dosed 78 weeks, study length 145 weeks) was 9840 mg/kg/day and the TD50 (mouse, strain Swiss, females, inhaled, site: any site (literature study), lesion: several types, types named in the paper, dosed 78 weeks, study length 145 weeks) was 9190 mg/kg/day. For the same compound, the TD50 (mouse, strain Swiss, females, inhaled, site: liver, lesion: hepatoma, dosed 78 weeks, study length 145 weeks) was 121000 mg/kg/day, the TD50 (mouse, strain Swiss, females, inhaled, site: lung, lesion: one or several types, types not named, dosed 78 weeks, study length 145 weeks) was 35400 mg/kg/day and the TD50 (mouse, strain Swiss, males, inhaled, site: any site (literature study), lesion: malignant tumor, dosed 78 weeks, study length 145 weeks) was 6320 mg/kg/day.
